Measurements taken from patent US20240316008A1, “TREATMENT OF SYSTEMIC IMMUNE ACTIVATION SYNDROMES” (TRANQUIS THERAPEUTICS, INC., priority 2020, published 2024).

Legend:
TNFα = TNFα secretion from LPS-stimulated BV2 cells (CBA assay); format: cell-based, murine; conditions: 100 ng/ml LPS, 24 hours; for TNFα production by LPS-stimulated BV-2 myeloid cells: compared to control
Protocol: LPS was used to induce cytokine secretion from BV-2 cells. Cells were incubated with TQS-168 at various concentrations to assess whether TQS-168 could suppress the LPS-promoted release of various cytokines from in vitro cell cultures. Cytokine secretion was measured by cytometric bead array (CBA) fluorescence-activated cell sorting (FACS).
Briefly, a vial of BV2 frozen stock (1 million cells per ml in complete medium) was thawed into 10 mL of complete medium per vial for a total of 4 vials. The vials were then centrifuged at 1800 rpm for 3 minutes to wash away freezing media. The four vials were then pooled into 25 mL of complete medium. TQS-168 was prepared in DMSO.
Cells were incubated for 24 hours in the presence of medium (negative control), LPS (positive control), DMSO+LPS (positive control, controlling additionally for presence of DMSO in the TQS-168 stock solution), or LPS+TQS-168 at final concentrations of 1 μM, 5 μM, 10 μM, and 20 μM.
After the well plates were incubated overnight for 24 hours, they were centrifuged at 1800 rpm for 5 minutes. Next, 150 μl from each well was transferred to a new set of plates, of which 50 μl was used for CBA. The plates were then centrifuged with the cells, followed by addition of 100 μl of DAPI (50 ml of PBS+10 μl of DAPI stock at 1:5000 dilution). The plates were then incubated in the dark for 5 minutes, followed by addition of 100 μl of PBS and centrifuged at 1800 rpm for 5 minutes. Finally, the plates were resuspended in 200 μl of PBS and tested.
Multiplexed cytometric bead array (CBA) assay was performed according to standard techniques to detect presence in the cell culture medium of secreted murine TNFα, IL-6, IFNγ, IL-12, monocyte chemoattractant protein 1 (MCP-1), and IL-10.
A total of 4-11 replicates of BV2 cultures in different conditions were investigated. Frozen BV2 microglia cell line was thawed and propagated in complete media (RPMI, 10% heat inactivated FBS, 1% L-glutamine, 1% Pen-Strep) until growth rate reached log phase.
Cells were stimulated with 100 ng/ml of LPS for 24 hours. […]

PGC-1α = PGC-1α protein expression in BV2 microglia cells (Western blot); format: cell-based, murine; conditions: 24 hours
Protocol: Frozen BV2 murine microglia cells were thawed and propagated in complete media (RPMI, 10% heat-inactivated FBS, 1% L-glutamine, 1% Pen-Strep) until the growth rate reached log phase. For protein expression analysis, DMSO (1:1000 final dilution) or TQS-168 in DMSO (1:1000 final dilution) at 20 μM was added to cell cultures. After 24 hours stimulation, supernatant was discarded and cell lysis buffer (Cell Signal) was added to adherent cells to extract protein. Total protein was quantified and normalized across all samples by BCA assays. Two replicates of untreated cultures and three replicates of TQS-168-treated cultures were investigated, with each replicate containing lysates from 5,000,000 BV2 myeloid cells. PGC1α expression was detected by Western Blot using an anti-PGC-1α antibody (SC13067, Santa Cruz Biotechnology, 1:500 dilution). Anti-β-actin antibody (SC8432, Santa Cruz Biotechnology, 1:2000 dilution) was used to quantify beta-actin, a housekeeping gene whose expression level is not know to be affected by TQS-168. […] Total protein was quantified and normalized across all samples by BCA assays. PGC-1α was subsequently detected by Western Blot using an anti-PGC-1α antibody (SC13067, Santa Cruz Biotechnology, 1:500 dilution). β-actin was detected with an anti-β-actin antibody (SC8432, Santa Cruz Biotechnology, 1:2000 dilution). […]

CC(C)(C)c1ccc(-c2nc3ccccc3[nH]2)cc1 [TQS-168, 2-(4-tert-butylphenyl)-1H-benzimidazole]
TNFα production by LPS-stimulated BV-2 myeloid cells (TNFα; 5 μM): suppress | TNFα production by LPS-stimulated BV-2 myeloid cells (TNFα; 20 μM): suppress | LPS-induced secretion of TNFα (TNFα; BV2 cells, 1 μM-20 μM): reduce | PGC-1α protein expression (PGC-1α; BV2 cells, concentrations ranging from 0.7 μM to 20 μM): induces | PGC-1α protein expression (PGC-1α; BV2 microglia cells, 20 μM, Western blot): induces
